According to the pKa sets of Baltruschat and Czodrowski (2020):

Settings: basic group

pKa | SMILES
11.1 | [O-]c1nc([O-])c2[nH]cnc2n1
9.12 | CNC(CO)CO
9 | CCCN(CCO)CC(O)CC (centres undefined)
9.4 | CCC(O)CN(CCO)C(C)(C)C (centres undefined)
4.64 | S=C(/N=N/c1ccccc1)NNc1ccccc1
9.84 | CNCCN(C)CC[NH2+]C
4.07 | [NH3+]C(c1ncc[nH]1)c1ncc[nH]1
3.4 | O=Cc1ncccc1O
9.28 | CC(=O)NCCN
5.93 | OCCCCCc1ccccn1
9.23 | CN(CCN)CC[NH+](C)C
5.03 | Nc1cccc2ccc3ncccc3c12
6.41 | Cc1[nH]cnc1CSCCNC(=[NH2+])NCCCc1c[nH]c[nH+]1
8.1 | Nc1ccnc(-c2ccccn2)c1
5.04 | Nc1ccc2nnccc2c1
-0.5 | Cc1cc(C(F)(F)F)n[nH]1
9.12 | CCN1CCC[C@@H]1CNC(=O)c1c([O-])c(Cl)cc(Cl)c1OC
10.8 | C[Si](C)(C)CCCN
9.82 | CN(C)c1ccc(C2=CN3CCC2CC3)cc1
10.3 | O=C([O-])CN1CCCCC1
5.96 | Cc1cc(N)cc(C)c1C(=O)NCCN1CCOCC1
8.2 | Nc1nc([S-])c2[nH]cnc2n1
9.26 | C[C@@H](C=C(c1ccccc1)c1ccccc1)N(C)C
4.6 | C[N+](C)(C)CCOC(=O)/C=C/c1c[nH]cn1
10.4 | CC(C)NCCNC(C)C

pKa | SMILES
7.71 | Cc1cccc(C)c1C(=N)c1ccccc1
2.7 | Cc1cc(C)ncn1
4.1 | COc1ccc(OC)c2c1nc(CCl)n2C
6.95 | COC(=O)C(N)CCONC(N)=O (centres undefined)
2.61 | COC(=O)c1ccc(N(C)C)cc1
9 | CN(C)/C=N/c1ccccc1
12 | C1CNCCSCCNC1
4.98 | CCc1cnc2c(ccc3cccnc32)c1
0.27 | COc1ccc(-c2cnc(-c3ccc([NH3+])cc3)o2)cc1
12.5 | Cn1ccc(=N)cc1
10.1 | C=CC(C)(C)NC(C)(C)C=C
2.44 | COC(=O)c1ccc(N)cc1
4.89 | COc1cccnc1
10.2 | CCN(CC)CCCC(C)Nc1ccnc2cc(Br)ccc12 (centres undefined)
9 | Cc1ccccc1/C(=N\CCCN(C)C)c1ccccc1N
11.7 | Oc1ccc(Cl)cc1CN1CCCC1
3.15 | Cc1cc[nH+]c([O-])n1
4.36 | C[NH+](C)CCNCC[NH3+]
9.02 | C[Si](C)(C)OC1CN(C2CCCCC2)C1
2.2 | CC[NH+](CC)Cc1cn2nc(-c3ccccc3)cc(C)c2n1
4.81 | COCCN(C)c1ccccc1
6.31 | O=C(NCCN1CCOCC1)c1ccc(Cl)cc1
10.1 | CCN(C)C
6.41 | CNc1cccnc1
8.98 | c1ccc(C2=NCCN2)nc1

pKa | SMILES
5.46 | CC1CNCC[NH2+]1 (centres undefined)
2.57 | NNC(=O)c1cccc([NH3+])c1
1.95 | Cc1cnc(C)cn1
6.21 | c1ccc(-c2ccc3ncc(CN4CCOCC4)n3n2)cc1
5.68 | CN[C@H]1C(C)[C@@H]1[NH2+]C (some centres undefined)
12.5 | CCOc1ccc2ccc(OCC)c(N3CCOCC3)c2c1N1CCOCC1
5.38 | COC(=O)[C@@H]([NH3+])Cc1c[nH]cn1
8.22 | Nc1ccnc2cc(Cl)ccc12
7.5 | CCCCCCCCCCN(CCO)CC(C)O (centres undefined)
1.16 | Cc1ccc(Nc2ccccc2)cc1
3.1 | [NH3+]Cc1ccccn1
9.99 | Cc1ccc(C2CCCN2)cc1 (centres undefined)
8.9 | CCS(=O)(=O)c1cc(OC)c(OC)c(C(=O)N[C@@H]2C[C@H]3CC[C@@H](C2)N3Cc2ccccc2)c1
-0.22 | Cc1c(O)c(=O)n(-c2ccccc2)n1C
6.99 | C[NH+](C)CCCNc1ccnc2ccc([N+](=O)[O-])cc12
7.7 | Cc1ccccc1NC(=O)CN1CCCCC1
9 | Cc1ccccc1/C(=N/CCCN(C)C)c1ccccc1
9.46 | c1cc(C2CCCN2)nc(C2CCC[NH2+]2)c1 (centres undefined)
10.6 | CN(C)CCCCCCCCCCNC(=O)/C=N/[O-]
10.4 | CCCCC/C(N)=N/N(C)C
10.7 | CC[Si](C)(C)CN
9.36 | NCc1ccccc1
11.6 | CCCCN(CC[S-])CCCC
1.3 | Nc1ccccc1[NH3+]
8.75 | CN(C)CCOC(C)(c1ccccc1)c1ccccc1

SMILES | pKa
CC1=C(CC(C)NCC(O)c2ccc([N+](=O)[O-])cc2)CCC1(C)C (centres undefined) | 8.36
CC(=O)OCC1CC2CCN1CC2 (centres undefined) | 9.88
N=C(N)Nc1nc(N)nc(N)n1 | 9.4
Nc1ccc(-c2ccc([NH3+])cc2)cc1 | 3.66
CCOc1ccc(N)cc1 | 5.25
C[Se](C)=O | 2.55
CNC(C)CC1CCCCC1 (centres undefined) | 10.5
C[NH+]1CCC[C@H]1c1cccnc1 | 3.16
COc1ccc2[nH]c3c(c2c1)CCN=C3C | 9.21
CC(C)[NH2+]CC(O)c1cccc(N)c1 (centres undefined) | 4.22
O=[N+]([O-])c1[nH]cnc1Cl | -1.3
Nc1ccc(Sc2ccc(N)cc2)cc1 | 4.25
CN(C)CC#N | 4.5
c1ccc(Cn2ccnc2)cc1 | 6.66
